Reference: patent US4137225A, “Novel chromogenic enzyme substrates” (Ab Kabi, priority 1975, dated 1979)
Values after ≈ are worked out from the molar mass of the structure shown. Where a name gives a salt, the structure may show the parent alone. Where a SMILES comes first, the peptide text is derived from it. [ ]: non-standard residue; d: D form. The star is where a group is joined. pNA = O=[N+]([O-])c1ccc(N*)cc1; Pip = O=C(O)[C@@H]1CCCCN1; Bz = O=C(c1ccccc1)*

What was measured:
Kallikrein = assay: Relative reaction rate of enzymatic hydrolysis of chromogenic substrates, kallikrein (p-nitroaniline release at 405 nm); assay type: biochemical; details: for Rel Reaction rates, Kal (Kallikrein): relative to reference substrate XVI
Text: (§1) The substrates prepared according to the examples above are used for determination of different enzymes according to the procedure outlined above.
(§2) The principle for the determination is based on the fact that the splitting product formed by enzymatic hydrolysis has a UV-spectrum which is essentially different from that of the substrate. Thus, e.g. all p-nitro anilide substrates according to the invention have absorption maxima around 310 nm with the molar extinction coefficient of about 12000. At 405 nm the absorption of these substrates has almost completely discontinued. p-Nitroaniline which has been split off from the substrate during the enzymatic hydrolysis has an absorption maximum at 380 nm and a molar extinction coefficient of 13200, which at 405 nm only has decreased to 9620. By spectrophotometric determination at 405 nm it is thus easy to follow the amount of p-nitroaniline formed which is proportional to the degree of the enzymatic hydrolysis which in its turn is determined by the active amount of enzyme.
(§3) In the table above the relative reaction rates for the different substrates are stated in relation to a reference substrate chosen for each enzyme. Symbols, reference substrates and their sensitivity for the respective enzymes are according to the following: […]

Solubility in buffer = assay type: physicochemical; details: aqueous buffer; Buffer = Tris, pH 8.2, I 0.15
Text: | ^x Buffer = Tris, pH 8.2, I 0.15

Plasmin = Plasmin (Homo sapiens, UniProt P00747); assay: Relative reaction rate of enzymatic hydrolysis of chromogenic substrates, plasmin (p-nitroaniline release at 405 nm); assay type: biochemical; details: for Rel Reaction rates, Pl (Plasmin): relative to reference substrate XVIII
Sequence of Plasmin (P00747 97-810): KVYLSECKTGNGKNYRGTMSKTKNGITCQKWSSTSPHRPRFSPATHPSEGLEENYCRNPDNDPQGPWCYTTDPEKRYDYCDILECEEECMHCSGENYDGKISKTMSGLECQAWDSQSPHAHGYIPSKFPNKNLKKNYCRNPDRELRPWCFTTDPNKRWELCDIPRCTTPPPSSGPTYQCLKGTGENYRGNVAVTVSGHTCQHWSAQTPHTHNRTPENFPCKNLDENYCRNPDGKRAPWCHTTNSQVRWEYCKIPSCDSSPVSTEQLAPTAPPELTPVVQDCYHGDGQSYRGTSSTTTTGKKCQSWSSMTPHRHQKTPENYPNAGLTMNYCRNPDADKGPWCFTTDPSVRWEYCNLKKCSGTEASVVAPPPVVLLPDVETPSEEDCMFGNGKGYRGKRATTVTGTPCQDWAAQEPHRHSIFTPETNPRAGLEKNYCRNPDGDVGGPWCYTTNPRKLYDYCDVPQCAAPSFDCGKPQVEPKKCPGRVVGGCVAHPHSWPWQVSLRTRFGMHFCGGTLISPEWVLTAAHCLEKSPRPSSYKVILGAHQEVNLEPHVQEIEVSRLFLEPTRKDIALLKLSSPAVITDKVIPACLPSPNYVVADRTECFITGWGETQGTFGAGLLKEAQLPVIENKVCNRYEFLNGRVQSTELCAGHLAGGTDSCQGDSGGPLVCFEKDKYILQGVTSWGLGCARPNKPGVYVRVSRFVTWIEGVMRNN
Text: as §1, §2, §3

Urokinase = Urokinase (Homo sapiens, UniProt P00749); assay: Relative reaction rate of enzymatic hydrolysis of chromogenic substrates, urokinase (p-nitroaniline release at 405 nm); assay type: biochemical; details: for Rel Reaction rates, UK (Urokinase): relative to reference substrate XIV
Text: as §1, §2, §3

Thrombin = assay: Relative reaction rate of enzymatic hydrolysis of chromogenic substrates, thrombin (p-nitroaniline release at 405 nm); assay type: biochemical; details: for Rel Reaction rates, T (Thrombin): relative to reference substrate XIV
Text: as §1, §2, §3

Trypsin = assay: Relative reaction rate of enzymatic hydrolysis of chromogenic substrates, trypsin (p-nitroaniline release at 405 nm); assay type: biochemical; details: for Rel Reaction rates, Try (Trypsin): relative to reference substrate XIII
Text: as §1, §2, §3

| SMILES | Rel Reaction rates, Kal (Kallikrein) (Kallikrein) | solubility (Solubility in buffer) | Rel Reaction rates, Pl (Plasmin) (Plasmin) | Rel Reaction rates, UK (Urokinase) (Urokinase) | Rel Reaction rates, T (Thrombin) (Thrombin) | Rel Reaction rates, Try (Trypsin) (Trypsin) | further results |
| --- | --- | --- | --- | --- | --- | --- | --- |
| CC(C)C[C@H](NC(=O)[C@H](N)C(C)C)C(=O)N[C@@H](CCCNC(=N)N)C(=O)Nc1ccc([N+](=O)[O-])cc1 [XVI, H-D-Val-Leu-ARg-pNA . 2 HCl] (H-[dV]-Leu-Arg-pNA) | 100 | 600000 µg/mL |  |  |  |  | Sensitivity (stated amount of enzyme gives the activity 0.1 nkat) (Kallikrein; Kallikrein, 0.1 nkat, ΔOD/min = 0.0254): 0.2 Be |
| CC(C)C[C@H](NC(=O)[C@@H](NC(=O)c1ccccc1)C(C)C)C(=O)N[C@@H](CCCCN)C(=O)Nc1ccc([N+](=O)[O-])cc1 [Bz-Val-Leu-Lys-pNA] (Bz-Val-Leu-Lys-pNA) |  | 500 µg/mL (≈ 858 µM) | 100 |  |  |  |  |
| CC(C)[C@H](N)C(=O)N1CCC[C@H]1C(=O)N[C@@H](CCCNC(=N)N)C(=O)Nc1ccc([N+](=O)[O-])cc1 [H-Val-Pro-Arg-pNA] (H-Val-Pro-Arg-pNA) |  | 40000 µg/mL (≈ 81500 µM) |  | 15 | 6 | 55 |  |
| CC[C@H](C)[C@H](NC(=O)c1ccccc1)C(=O)N[C@@H](CC(C)C)C(=O)N[C@@H](CCCNC(=N)N)C(=O)Nc1ccc([N+](=O)[O-])cc1 [Bz-Ile-Leu-Arg-pNA] (Bz-Ile-Leu-Arg-pNA) | 100 | 200 µg/mL (≈ 320 µM) | 55 |  |  |  |  |
| CC(C)C[C@H](NC(=O)[C@H](N)C(C)C)C(=O)N[C@@H](CCCCN)C(=O)Nc1ccc([N+](=O)[O-])cc1 [XVIII, H-D-Val-Leu-Lys-pNA . 2 HCl] (H-[dV]-Leu-Lys-pNA) |  | > 100000 µg/mL | 100 |  |  |  | Sensitivity (stated amount of enzyme gives the activity 0.1 nkat) (Plasmin; Plasmin, 0.1 nkat, ΔOD/min = 0.0254): 0.01 CU |
| CC(C)C[C@H](NC(=O)[C@@H](NC(=O)c1ccccc1)C(C)C)C(=O)N[C@@H](CCCNC(=N)N)C(=O)Nc1ccc([N+](=O)[O-])cc1 [Bz-Val-Leu-Arg-pNA] (Bz-Val-Leu-Arg-pNA) | 100 | 200 µg/mL (≈ 327 µM) |  |  |  |  |  |
| CC[C@H](C)[C@H](N)C(=O)N[C@@H](CC(C)C)C(=O)N[C@@H](CCCNC(=N)N)C(=O)Nc1ccc([N+](=O)[O-])cc1 [H-Ile-Leu-Arg-pNA] (H-Ile-Leu-Arg-pNA) | 20 |  | 10 |  |  |  |  |
| CC(C)[C@H](N)C(=O)N1CCCC[C@H]1C(=O)N[C@@H](CCCNC(=N)N)C(=O)Nc1ccc([N+](=O)[O-])cc1 [H-Val-Pip-Arg-pNA] (H-Val-[Pip]-Arg-pNA) |  |  |  | 45 | 4 | 35 |  |
| CC(C)C[C@H](NC(=O)[C@@H](N)C(C)C)C(=O)N[C@@H](CCCNC(=N)N)C(=O)Nc1ccc([N+](=O)[O-])cc1 [H-Val-Leu-Arg-pNA] (H-Val-Leu-Arg-pNA) | 50 |  |  |  |  |  |  |
| CC(C)C[C@H](NC(=O)[C@@H](N)C(C)C)C(=O)N[C@@H](CCCCN)C(=O)Nc1ccc([N+](=O)[O-])cc1 [H-Val-Leu-Lys-pNA] (H-Val-Leu-Lys-pNA) |  |  | 25 |  |  |  |  |
| CC(C)[C@H](NC(=O)c1ccccc1)C(=O)N1CCCC[C@H]1C(=O)N[C@@H](CCCNC(=N)N)C(=O)Nc1ccc([N+](=O)[O-])cc1 [Bz-Val-Pip-Arg-pNA] (Bz-Val-[Pip]-Arg-pNA) |  |  |  | 30 | 4 | 45 |  |
| CC[C@H](C)[C@H](N)C(=O)N[C@@H](CC(C)C)C(=O)N[C@@H](CCCCN)C(=O)Nc1ccc([N+](=O)[O-])cc1 [H-Ile-Leu-Lys-pNA] (H-Ile-Leu-Lys-pNA) |  |  | 35 |  |  |  |  |
| CC(C)[C@@H](N)C(=O)N1CCCC[C@H]1C(=O)N[C@@H](CCCNC(=N)N)C(=O)Nc1ccc([N+](=O)[O-])cc1 [XIV, H-D-Val-Pip-Arg-pNA . 2 HCl] (H-[dV]-[Pip]-Arg-pNA) |  |  |  | 100 | 100 | 70 | Sensitivity (stated amount of enzyme gives the activity 0.1 nkat) (Urokinase; Urokinase, 0.1 nkat, ΔOD/min = 0.0254): 40 Ploug E; Sensitivity (stated amount of enzyme gives the activity 0.1 nkat) (Thrombin; Thrombin, 0.1 nkat, ΔOD/min = 0.0254): 0.06 INH |
| CC[C@@H](C)[C@@H](N)C(=O)N[C@@H](CC(C)C)C(=O)N[C@@H](CCCCN)C(=O)Nc1ccc([N+](=O)[O-])cc1 [XVII, H-D-Ile-Leu-Lys-pNA . 2 HCl] (H-[dI]-Leu-Lys-pNA) |  | 20000 µg/mL | 100 |  |  |  |  |
| CC(C)[C@@H](N)C(=O)N1CCC[C@H]1C(=O)N[C@@H](CCCNC(=N)N)C(=O)Nc1ccc([N+](=O)[O-])cc1 [XIII, H-D-Val-Pro-Arg-pNA . 2 HCl] (H-[dV]-Pro-Arg-pNA) |  | 100000 µg/mL |  | 95 | 80 | 100 | Sensitivity (stated amount of enzyme gives the activity 0.1 nkat) (Trypsin; Trypsin, 0.1 nkat, ΔOD/min = 0.0254): 0.03 µg (Novo) |
| CC(C)[C@H](NC(=O)c1ccccc1)C(=O)N1CCC[C@H]1C(=O)N[C@@H](CCCNC(=N)N)C(=O)Nc1ccc([N+](=O)[O-])cc1 [Bz-Val-Pro-Arg-pNA] (Bz-Val-Pro-Arg-pNA) |  | 300 µg/mL (≈ 504 µM) |  | 15 | 6 | 60 |  |
| CC[C@H](C)[C@H](NC(=O)c1ccccc1)C(=O)N[C@@H](CC(C)C)C(=O)N[C@@H](CCCCN)C(=O)Nc1ccc([N+](=O)[O-])cc1 [Bz-Ile-Leu-Lys-pNA] (Bz-Ile-Leu-Lys-pNA) |  | 1000 µg/mL (≈ 1680 µM) | 130 |  |  |  |  |
| CC[C@@H](C)[C@@H](N)C(=O)N[C@@H](CC(C)C)C(=O)N[C@@H](CCCNC(=N)N)C(=O)Nc1ccc([N+](=O)[O-])cc1 [XV, H-D-Ile-Leu-Arg-pNA . 2 HCl] (H-[dI]-Leu-Arg-pNA) | 100 | 4000 µg/mL | 75 |  |  |  |  |
